Data as given in PubChem BioAssay (NCI).
Values joined by “and” are separate entries in the source; they are usually repeats but may differ in a detail not shown here. Equal entries are not always repeated.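 Cultured in 96-well plates, cells were exposed to test compound for 48 hours across five concentrations. GI50 = concentration required for 50% inhibition of growth. TGI: concentration producing complete growth inhibition.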

Experiments:
Experiment in all cases: inhibition of tumour cell growth, NCI panel, 48 h
RXF 393 renal = test system: RXF 393 renal
SK-MEL-2 melanoma = test system: SK-MEL-2 melanoma
NCI-H226 lung = test system: NCI-H226 lung
MDA-N = test system: MDA-N
HL-60(TB) leukemia = test system: HL-60(TB) leukemia
MCF7 breast = test system: MCF7 breast
HOP-92 NSCLC = test system: HOP-92 NSCLC
NCI-H460 lung = test system: NCI-H460 lung
M14 melanoma = test system: M14 melanoma
A498 renal = test system: A498 renal

Structure (SMILES) | TGI (RXF 393 renal) [µM] | TGI (SK-MEL-2 melanoma) [µM] | TGI (NCI-H226 lung) [µM] | TGI (MDA-N) [µM] | TGI (HL-60(TB) leukemia) [µM] | TGI (MCF7 breast) [µM] | TGI (HOP-92 NSCLC) [µM] | TGI (NCI-H460 lung) [µM] | TGI (M14 melanoma) [µM] | TGI (A498 renal) [µM] | GI50 (MCF7 breast)
O=C1c2ccccc2-c2nnc3c(c21)-c1ccccc1C3 | > 100 | > 100 | > 100 | > 100 | > 100 | > 100 | > 100 | > 100 | > 100 | – | –
CC[C@@]1(C)CCC2c3ccc(O)cc3CC[C@H]2C1C (some centres not stated) | 26 | 32.8 | – | 25.8 | 29 | 30.3 | 19.5 | 40.6 | 30.3 | 34 | –
CC(=O)NC1(c2cc3ccccc3s2)CCCCCC1 | 80.6 | 53.2 | > 100 | > 100 | 55.4 | > 100 | > 100 | > 100 | > 100 | > 100 | –
COc1cc(NCCC2CCCCN2)c2ncccc2c1 (configuration not stated) | 77 | > 91.1 | 97.9 | > 100 | 19.1 | 1.96 | > 100 | > 100 | 44.9 | > 89.6 | –
COc1ccc(C2SCC(=O)N2NC(=O)c2ccc(NC(C)=O)cc2)c(OC)c1 (configuration not stated) | > 100 | > 100 | > 100 | > 100 | > 100 | > 100 | > 100 | > 100 | > 100 | > 100 | –
CC(=O)Nc1c(C)cc2c(nc3n2CCC3OC(C)=O)c1[N+](=O)[O-] (configuration not stated) | > 100 | > 100 | > 100 | > 100 | > 100 | > 100 | > 100 | > 100 | > 100 | > 100 | –
CC(C)=CC(Cc1ccccc1)S(=O)(=O)c1nc2ccccc2s1 (configuration not stated) | 41.9 | 28.5 | 29.6 | 29.7 | 9.62 | 31.5 | 41.7 | 50.1 | 31.2 | 35.5 | –
CCOC(=O)C1(C(=O)OCC)OC(C)=NC1(C(=O)OC)C(=O)OC | > 100 | > 100 | > 100 | > 100 | > 100 | > 100 | > 26.4 | > 100 | > 100 | > 100 | –
COC(=O)c1cc(C(=CCC[C@H]2CC[C@@]3(C)C(CCC4C3CC[C@@]3(C)C4CC[C@@H]3C(C)CCCC(C)C)C2)c2cc(Cl)c(O)c(C(=O)OC)c2)cc(Cl)c1O (some centres not stated) | > 10 | > 10 | > 10 | > 10 | > 10 | > 10 | > 10 | > 10 | > 10 | – | –
C/C=C(\C)C(O)C(C)C(O)C/C=C(C)/C=C(\C)C/C(C)=C/C/C=C(\C)C(O)C(C)c1ccc(CCC)c(=O)o1 (configuration not stated) | 77.3 | 45 | 55.6 | 22.8 | > 100 | 22.9 | 44 | 22.7 | 28.4 | 50.6 | –
NC(Cc1ccc(N(CCCl)CCCl)cc1)C(=O)NC(CCC(=O)O)C(=O)O (configuration not stated) | > 100 | > 100 | > 100 | > 100 | > 100 | > 100 | > 100 | > 100 | > 100 | > 100 | –
CC(C)NC(=O)N(Nc1ccccc1)C(C)(C)C | > 100 | > 100 | > 100 | > 100 | > 100 | > 100 | > 100 | > 100 | > 100 | > 100 | –
CC(C)C(=O)Nc1cc(C(F)(F)F)ccc1[N+](=O)[O-] | > 100 | > 100 | > 100 | > 100 | > 100 | > 100 | > 100 | > 100 | > 100 | > 100 | –
CC1SCc2nc3ccccc3n21 (configuration not stated) | > 100 | > 100 | > 100 | > 100 | > 100 | > 100 | > 100 | > 100 | > 100 | > 100 | –
CN(C)C(c1ccccc1)C1COC2Cc3ccccc3C1O2 (configuration not stated) | > 100 | > 100 | > 100 | > 100 | > 100 | > 100 | > 100 | > 100 | > 100 | > 100 | 84 µM and 23.6 µM
CCC(=O)Nc1ccc(NC(C#N)c2cccc(Oc3ccccc3)c2)cc1 (configuration not stated) | > 100 | 94.6 | 89.3 | > 100 | 46.8 | > 100 | > 100 | – | > 100 | > 100 | –

Structure (SMILES) | TGI (RXF 393 renal) [µM] | TGI (SK-MEL-2 melanoma) [µM] | TGI (NCI-H226 lung) [µM] | TGI (MDA-N) [µM] | TGI (HL-60(TB) leukemia) [µM] | TGI (MCF7 breast) [µM] | TGI (HOP-92 NSCLC) [µM] | TGI (NCI-H460 lung) [µM] | TGI (M14 melanoma) [µM] | TGI (A498 renal) [µM] | GI50 (MCF7 breast)
O=c1[nH]nc(Cc2c[nH]c3ccccc23)o1 | > 100 | > 100 | > 100 | > 100 | > 100 | > 100 | > 100 | – | > 100 | > 100 | –
O=C(c1ccccc1)c1ccc2[nH]c(-c3c(Cl)c(Cl)c(Cl)c(Cl)c3C(=O)N/N=C/c3cccc(Oc4ccccc4)c3)nc2c1 | > 100 | > 100 | > 100 | > 100 | > 100 | > 100 | > 100 | – | > 100 | – | –
COc1cc(/C=N/n2c(-c3ccccc3)nn(C(C)=O)c2=O)cc(OC)c1OC | > 88.4 | 18.4 | > 100 | 3.83 | 9.68 | > 37.9 | > 89.7 | > 39.2 | > 58.9 | 23.3 | –
CC(C)=CCC/C(C)=C/CC/C(C)=C/CC/C(C)=C/CC/C(C)=C/CC/C(C)=C/CC/C(C)=C/CC/C(C)=C/CC/C(C)=C/CO | > 100 | > 100 | > 100 | > 100 | > 100 | > 100 | > 100 | > 100 | > 100 | > 100 | –
CS(=O)(=O)c1ccc(N=C/C=C/Nc2ccc(S(C)(=O)=O)cc2)cc1 | > 100 | > 100 | > 100 | > 100 | > 100 | > 100 | > 100 | > 100 | > 100 | > 100 | –
COc1ccccc1C1ON=C(c2ccc([N+](=O)[O-])cc2)N1C12CC3CC(CC(C3)C1)C2 (configuration not stated) | 60.4 | > 100 | > 100 | > 100 | 42.5 | > 100 | > 100 | > 100 | > 100 | > 100 | –
CC(C)O/N=C/c1cc(NC(=S)OC(C)C)ccc1Cl | 52.9 | > 61.7 | > 51.2 | > 100 | 57.6 | > 68.8 | 99.8 | > 100 | > 95.6 | > 76.5 | –
Cn1c(=O)c2c(nc3n2CCCC(=O)N3CC(O)CCl)n(C)c1=O (configuration not stated) | > 100 | > 100 | > 100 | > 100 | > 100 | > 100 | > 100 | > 100 | > 100 | > 100 | –
CCOC(=O)C1c2[nH]c3ccccc3c2CCN1C(=O)c1ccc(OC)o1 (configuration not stated) | > 10 | > 10 | > 10 | > 10 | > 10 | > 10 | > 10 | > 10 | > 10 | > 10 | –
CCOC(=O)c1cc2/c(=C\c3ccc(N(C)C)cc3)c3ccccc3n2[n+]1C | 4.78 | 4.74 | 24.6 | 15.3 | 2.37 | 27.9 | 14.9 | 12.6 | 15.2 | 27.7 | –
COC(=O)C(Cc1c[nH]c2ccccc12)NC(=O)c1ccc(-c2ccc(Cl)cc2Cl)o1 (configuration not stated) | > 100 | > 100 | > 100 | > 100 | > 100 | > 100 | 71.4 | > 100 | > 100 | 67.9 | –
COc1cc(C2c3cc4c(cc3OC(NNS(=O)(=O)c3ccc(C)cc3)C2C)OCO4)cc(OC)c1O (configuration not stated) | 54 | – | 60.2 | 51.4 | 35.4 | 36.1 | 54.8 | 17.5 | 58.2 | 25.2 | –
COc1cc(-c2cc(=O)c3c(O)c(CC=C(C)C)c(O)cc3o2)ccc1O | > 50 | > 50 | > 50 | 20.2 | > 50 | > 50 | > 50 | > 50 | 39.7 | > 50 | –
CCOC(=O)C(Cc1ccc(OC(=O)c2ccc(OC)cc2)cc1)NC(=O)C(F)(F)F (configuration not stated) | 73.2 | > 100 | > 100 | > 100 | > 100 | > 100 | > 100 | > 100 | > 100 | > 100 | –
CC(=O)OCC1OC(Nn2c(=O)[nH]c3ccccc3c2=O)C(OC(C)=O)C(OC(C)=O)C1OC(C)=O (configuration not stated) | > 100 | > 100 | > 100 | > 100 | > 100 | > 100 | > 100 | > 100 | > 100 | > 100 | –
COC(=O)C1(C#N)C(C)(C)N=C(c2ccccc2)C12CCCCC2 (configuration not stated) | > 100 | > 100 | – | > 100 | > 100 | > 100 | > 100 | > 100 | > 100 | > 100 | –
